Key:
[1] = tested on: A549
Description: Cytotoxicity against human A549 cells after 72 hrs by sulforhodamine B assay

[2] = tested on: K562; assay: Cytotoxicity against human K562 cells after 72 hrs by sulforhodamine B assay; assay type: functional, cell-based; conditions: k562
[3] = tested on: MDA-MB-231; assay: Cytotoxicity against human MDA-MB-231 cells after 72 hrs by sulforhodamine B assay; assay type: functional, cell-based
[4] = tested on: HCT-116; assay: Cytotoxicity against human HCT116 cells after 72 hrs by sulforhodamine B assay; assay type: functional, cell-based; conditions: hct-116
[5] = tested on: SNU-638; assay: Cytotoxicity against human SNU638 cells after 72 hrs by sulforhodamine B assay; assay type: functional, cell-based; conditions: snu-638
[6] = tested on: SK-HEP1; assay: Cytotoxicity against human SKHEP1 cells after 72 hrs by sulforhodamine B assay; assay type: functional, cell-based; conditions: sk-hep1
[7] = tested on: Trichophyton mentagrophytes; assay: Antifungal activity against Trichophyton mentagrophytes IFO 40996 measured after 48 to 72 hrs; assay type: functional
[8] = tested on: Trichophyton rubrum; assay: Antifungal activity against Trichophyton rubrum IFO 9185 measured after 48 to 72 hrs; assay type: functional
[9] = tested on: Salmonella typhimurium; assay: Antibacterial activity against Salmonella typhimurium ATCC 14028 measured after 24 hrs; assay type: functional, Salmonella enterica subsp. enterica serovar Typhimurium; conditions: Salmonella enterica, ATCC 14028, 24 h
[10] = tested on: Micrococcus luteus; assay: Antibacterial activity against Micrococcus luteus IFC 12708 measured after 24 hrs; assay type: functional; conditions: IFC 12708, 24 h
[11] = tested on: Aspergillus fumigatus; assay: Antifungal activity against Aspergillus fumigatus HIC 6094 measured after 48 to 72 hrs; assay type: functional
[12] = Inhibition of recombinant bacterial sortase A using Dabcyl-QALPETGEE-Edans as substrate measured after 1 hr by fluorescence assay; design: species or system Bacteria
[13] = tested on: Bacillus spizizenii; assay: Antibacterial activity against Bacillus subtilis ATCC 6633 measured after 24 hrs; assay type: functional; conditions: ATCC 6633, 24 h
[14] = tested on: Staphylococcus aureus; assay: Antibacterial activity against Staphylococcus aureus ATCC 6538P measured after 24 hrs; assay type: functional
[15] = tested on: Candida albicans; assay: Antifungal activity against Candida albicans ATCC 10231 measured after 48 to 72 hrs; assay type: functional
[16] = tested on: Escherichia coli; assay: Antibacterial activity against Escherichia coli ATCC 25922 measured after 24 hrs; assay type: functional; conditions: ATCC 25922, 24 h
[17] = target: Sodium/potassium-transporting ATPase; assay: Inhibition of potassium-activated sodium/potassium ATPase in human placenta using 3-O-methylfluorescein phosphate as substrate measured for 90 secs by fluorescence assay
[18] = tested on: Proteus vulgaris; assay: Antibacterial activity against Proteus vulgaris ATCC 3851 measured after 24 hrs; assay type: functional; conditions: ATCC 3851, 24 h

SMILES	IC50 [1]	IC50 [2]	IC50 ([3]; Homo sapiens, MDA-MB-231, 72 h)	IC50 [4]	IC50 [5]	IC50 [6]	MIC [7]	MIC [8]	MIC [9]	MIC [10]	MIC [11]	IC50 [12]	MIC [13]	MIC [14]	MIC [15]	IC50 ([3]; mda-mb-231)	MIC [16]	IC50 [17]	MIC [18]
CC[C@H](C)[C@@H]1NC(=O)[C@H](Cc2ccc(O)cc2)NC(=O)[C@@H]2CCCN2C(=O)[C@@H]2CCCN2C(=O)[C@H](CC(C)C)NC(=O)[C@H](CCC(=O)O)NC(=O)[C@H](Cc2ccccc2)NC(=O)[C@H](CC[S+](C)[O-])NC(=O)[C@@H]2CCCN2C(=O)[C@@H]2CCCN2C1=O (single isomer, unassigned; epimer 2)	0.023 µM	0.021 µM	0.35 µM	0.011 µM	0.01 µM	0.014 µM													
CC[C@H](C)[C@@H]1NC(=O)[C@H](Cc2ccc(O)cc2)NC(=O)[C@@H]2CCCN2C(=O)[C@@H]2CCCN2C(=O)[C@H](CC(C)C)NC(=O)[C@H](CCC(=O)O)NC(=O)[C@H](Cc2ccccc2)NC(=O)[C@H](CC[S+](C)[O-])NC(=O)[C@@H]2CCCN2C(=O)[C@@H]2CCCN2C1=O (single isomer, unassigned; Epimer-1)	0.19 µM	0.17 µM		0.14 µM	0.16 µM	0.041 µM	> 128 µM	> 128 µM	> 128 µM	> 128 µM	> 128 µM	> 100 µM	> 128 µM	> 128 µM	> 128 µM	0.4 µM	> 128 µM	> 100 µM	> 128 µM
